Assays:
[1] = molecular target: T1, GST-tagged recombinant human full-length TTK protein kinase (Homo sapiens, UniProt P33981); assay: TTK mobility shift microfluidics assay, single-concentration percent inhibition screen; format: biochemical; settings: 12.5 nM TTK, 10 μM ATP, mean of duplicate ± SD
T1 construct: GST-tagged recombinant human full-length TTK protein kinase; purchased Invitrogen (Life Technologies Ltd., Paisley, U.K.)
T1 sequence (P33981 1-857): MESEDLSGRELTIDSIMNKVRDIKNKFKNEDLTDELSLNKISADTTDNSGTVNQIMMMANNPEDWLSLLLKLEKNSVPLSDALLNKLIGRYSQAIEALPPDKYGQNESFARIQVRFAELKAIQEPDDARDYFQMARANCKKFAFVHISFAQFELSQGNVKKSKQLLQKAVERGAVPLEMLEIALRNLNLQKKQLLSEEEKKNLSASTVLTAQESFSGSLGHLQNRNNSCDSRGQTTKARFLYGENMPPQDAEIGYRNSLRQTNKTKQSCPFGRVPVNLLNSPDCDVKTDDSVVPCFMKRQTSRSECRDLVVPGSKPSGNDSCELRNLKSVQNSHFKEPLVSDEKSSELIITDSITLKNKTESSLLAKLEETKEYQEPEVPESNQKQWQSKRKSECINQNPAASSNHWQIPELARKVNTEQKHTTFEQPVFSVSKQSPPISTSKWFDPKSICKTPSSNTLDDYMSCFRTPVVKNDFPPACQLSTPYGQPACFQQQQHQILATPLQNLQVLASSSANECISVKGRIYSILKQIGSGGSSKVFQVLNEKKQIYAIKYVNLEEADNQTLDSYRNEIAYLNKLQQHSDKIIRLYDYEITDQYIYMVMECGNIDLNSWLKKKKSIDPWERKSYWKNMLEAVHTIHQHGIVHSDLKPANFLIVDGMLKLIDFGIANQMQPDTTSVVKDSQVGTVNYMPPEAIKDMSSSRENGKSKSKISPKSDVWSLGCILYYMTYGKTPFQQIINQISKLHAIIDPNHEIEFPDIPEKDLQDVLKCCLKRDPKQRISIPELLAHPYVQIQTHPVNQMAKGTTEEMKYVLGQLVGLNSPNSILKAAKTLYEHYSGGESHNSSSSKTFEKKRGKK
Description: The TTK kinase activity was measured in a mobility shift microfluidics assay with the Caliper LabChip EZReader II (Caliper Life Sciences, Hopkinton, MA, U.S.A.). For the initial percent inhibition compound screen, all compounds were tested at 40 μM, and fragment-like compounds (MW < 300 Da) were also tested at 400 μM. A 2.14 μM stock of GST-tagged recombinant human full-length TTK protein kinase from Invitrogen (Invitrogen, Life Technologies Ltd., Paisley, U.K.) and custom synthesized peptide from Pepceuticals (Pepceuticals Ltd., Enderby, U.K.) with sequence 5-FAM-[…]-amide were used. […] For every 10 mL of stock buffer, one Roche EDTA free complete mini-protease inhibitor cocktail tablet (Roche, Basel, Switzerland) was added. TTK was used at a final concentration of 12.5 nM. The assay plate was sealed and incubated at room temperature for 60 min. The assay was stopped by addition of stop buffer which contained 100 mM HEPES (pH 7.3), 20 mM EDTA, and 0.05% (v/v) Brij-35. The assay plate was then analyzed using the EZReader II. Z′ for compounds at 40 μM was 0.48, and Z′ for compounds at 400 μM was 0.61.

[2] = molecular target: T1, GST-tagged recombinant human full-length TTK protein kinase; assay: TTK mobility shift microfluidics assay, IC50 determination (3 nM TTK); format: biochemical
[3] = molecular target: T2, TTK kinase domain (residues 519–808) (Homo sapiens, UniProt P33981); assay: Soaking of apo TTK kinase domain crystals with inhibitor, X-ray crystallography; format: binding; settings: crystals soaked with 10–50 mM compound for 24 h
T2 construct: TTK kinase domain (residues 519–808); inferred from Ni-NTA purification with imidazole elution; made in house; host or cells: E. coli BL21 AI
T2 sequence (P33981 519-808): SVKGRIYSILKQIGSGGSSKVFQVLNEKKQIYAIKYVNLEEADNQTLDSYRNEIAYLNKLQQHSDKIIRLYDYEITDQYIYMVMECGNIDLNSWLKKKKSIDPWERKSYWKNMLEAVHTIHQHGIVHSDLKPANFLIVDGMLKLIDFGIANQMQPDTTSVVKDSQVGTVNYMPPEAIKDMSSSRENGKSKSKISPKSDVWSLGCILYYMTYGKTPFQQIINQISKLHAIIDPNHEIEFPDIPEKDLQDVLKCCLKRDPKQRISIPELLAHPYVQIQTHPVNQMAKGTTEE
From the text: In recognition of the desirability of protein–ligand crystal structures to educate the efficient follow-up of fragment-like hit matter and our wish to determine the mode of binding of hits identified with the scaffold-focused virtual screen, we sought co-crystal structures of confirmed hits with TTK. To this end, apo crystals of TTK kinase domain were soaked in buffer solution containing the respective inhibitor (2–9). X-ray data were collected for all crystals, and the structures were solved using molecular replacement. We successfully obtained co-crystal structures of TTK with fragment-like hit compounds 3, 4, 5, and 7. […] A summary of crystallographic analysis is presented in Table 4, and the binding modes of compounds 3, 4, 5, and 7 are illustrated in Figure 7 with Fo–Fc electron density omit maps surrounding the ligand shown in green wire-mesh contoured at 3σ. In all four structures, the activation loop of TTK is disordered, possibly due to the presence of a PEG molecule bound to Lys553, a residue which would usually coordinate with Glu571 to help stabilize the activation loop (Lys553 is not shown in Figure 7 for clarity).
TTK was purified and crystallized as described previously.[26] Plasmids for expression of TTK were received from Stefan Knapp, Structural Genomics Consortium, Oxford, U.K. TTK kinase domain (residues 519–808) was expressed in E. coli BL21 AI competent cells (Invitrogen, Life Technologies Ltd., Paisley, U.K.). Cells were cultured in LB media containing kanamycin selection antibiotic and induced with 0.5 mM IPTG and 1g/L L-arabinose at an OD280 of 0.7. Cells were then incubated overnight at 18 °C with shaking at 225 rpm. Cells were harvested and resuspended in lysis buffer containing 50 mM HEPES pH 7.5, 500 mM NaCl, 10 mM imidazole, 5% (v/v) glycerol, lysozyme, and 1 Roche EDTA free complete protease inhibitor cocktail tablet (Roche, Basel, Switzerland) per 3 L of buffer. TTK was purified using Ni–NTA nickel affinity resin and washed in buffer containing 30 mM imidazole. TTK was then eluted from the resin with 250 mM imidazole. Eluate was concentrated using a Vivaspin concentrator with a 30 kDa molecular weight cutoff (GE Healthcare, Chalfont St. Giles, U.K.) and further purified on gel filtration column Superdex 200 16/60 (GE Healthcare, Chalfont St. Giles, U.K.) equilibrated in buffer containing 10 mM HEPES pH 7.5, 150 mM NaCl, 5 mM DTT, and 5 mM EDTA. The sample was concentrated to a final concentration of 8.9 mg/mL, snap frozen on dry ice, and stored at −80 °C until required.
Purified TTK was crystallized at 18 °C using the sitting drop vapor diffusion method with drops composed of 2 μL protein (8.9 mg/mL) and 2 μL reservoir solution placed over 200 μL reservoir solution of H2O/PEG300 (30–45% (v/v)) in 48 well plates. […]

inhibition at 40 µM ([1]; compound at 40 μM, 1% DMSO): 52 ± 1.41%
inhibition at 400 µM ([1]; compound at 400 μM (fragment-like, MW < 300 Da)): 56 ± 1.41%
IC50 ([2]; 1% DMSO, 3 nM TTK, 10 μM ATP, duplicate on the same plate): 53 µM
LE (ligand efficiency) ([2]; from TTK IC50): 0.29
binding in ATP binding site of soaked TTK crystals (electron density) [3]: not bound
Compound: Nc1nnc2c([nH]c3ccccc32)c1-c1ccccc1 [Compound 2]

— publication PMC3665241, “Scaffold-Focused Virtual Screening: Prospective Application to the Discovery of TTK Inhibitors” (Journal of Chemical Information and Modeling, 2013)
